Where a name gives a salt, the structure may show the parent alone. Read-outs that look alike come from different tables or passages of the source.
How the values were obtained:
Male SD/TAC rats = assay: animal or person; format: in vivo, rat; settings: for response vs control in vivo at 3 µmol/kg / minimal effective dose / ED (max): Rattus norvegicus; for minimal effective dose: read-out: Lovest Dose at which increased diuresis is achieved nMol/kg. I.e. >1.5 SC; for ED (max): read-out: SC Dose at which max diuresis is achieved nMol/kg
male NMRI mice = settings: mouse, in vivo, iv; for dose at which the mice died after injection / time to death after injection: male, NMRI
mice = settings: mouse, in vivo, iv
in vivo = settings: male, Sprague-Dawley, rat
[1] = rat, in vivo

CC(C)[C@H]1CC[C@@H](N2CCC3(CC2)C(=O)N(CCCCCCCCCN2CN(c4ccccc4)C4(CCN([C@H]5CC[C@@H](C(C)C)CC5)CC4)C2=O)CN3c2ccccc2)CC1 [Compound 25, 1,9-bis-(cis-8-(4-isopropyl-cyclohexyl)-1-phenyl-1,3,8-triaza-spiro[4.5]decan-4-one-3-yl)-nonane]
response vs control in vivo at 3 µmol/kg (Male SD/TAC rats; po, read-out: PO max effect.): 250% | minimal effective dose (Male SD/TAC rats; sc): 0.01 µmol/kg | ED (max) (Male SD/TAC rats; sc): 1000 nmol/kg | response vs control in vivo at 3 µmol/kg (Male SD/TAC rats; sc, read-out: SC max effect.): 250% | Lovest Dose at which increased diuresis is achieved nMol/kg. I.e. >1.5 IV (Male SD/TAC rats; rat, in vivo): 10^−5 nMol/kg | Lovest Dose at which increased diuresis is achieved nMol/kg. I.e. >1.5 PO (Male SD/TAC rats; rat, in vivo, po): 10 nmol/kg | PO Dose at which max diuresis is achieved (Male SD/TAC rats; rat, in vivo, po): 1000 nmol/kg

CC(C)[C@H]1CC[C@@H](N2CCC3(CC2)C(=O)N(CCCNCCNCCNCCCNCCN)CN3c2ccccc2)CC1 [Compound 33, cis-8-(4-Isopropyl-cyclohexyl)-3-(4,7,10,14,17-pentaazaheptadecyl)-1-phenyl-1,3,8-triaza-spiro[4.5]decan-4-one]
response vs control in vivo at 3 µmol/kg (Male SD/TAC rats; po, read-out: PO max effect.): 160% | minimal effective dose (Male SD/TAC rats; sc): 0.0001 µmol/kg | ED (max) (Male SD/TAC rats; sc): 1000 nmol/kg | response vs control in vivo at 3 µmol/kg (Male SD/TAC rats; sc, read-out: SC max effect.): 330% | Lovest Dose at which increased diuresis is achieved nMol/kg. I.e. >1.5 PO (Male SD/TAC rats; rat, in vivo, po): 1000 nmol/kg | PO Dose at which max diuresis is achieved (Male SD/TAC rats; rat, in vivo, po): 1000 nmol/kg

CC(C)[C@H]1CC[C@@H](N2CCC3(CC2)C(=O)N(CCCCCCNCCNCCCNCCNCCN)CN3c2ccccc2)CC1 [Compound 34, cis-8-(4-Isopropyl-cyclohexyl)-3-(7,10,14,17,20-pentaazaeicosanyl)-1-phenyl-1,3,8-triaza-spiro[4.5]decan-4-one]
response vs control in vivo at 3 µmol/kg (Male SD/TAC rats; po, read-out: PO max effect.): 200% | minimal effective dose (Male SD/TAC rats; sc): 0.01 µmol/kg | ED (max) (Male SD/TAC rats; sc): 100 nmol/kg | response vs control in vivo at 3 µmol/kg (Male SD/TAC rats; sc, read-out: SC max effect.): 490% | Lovest Dose at which increased diuresis is achieved nMol/kg. I.e. >1.5 IV (Male SD/TAC rats; rat, in vivo): 0.0001 nmol/kg | Lovest Dose at which increased diuresis is achieved nMol/kg. I.e. >1.5 PO (Male SD/TAC rats; rat, in vivo, po): 0.1 nmol/kg | PO Dose at which max diuresis is achieved nMol/kg (Male SD/TAC rats; rat, in vivo, po): 0.1; 10 nMol/kg | dose at which the mice died after injection (male NMRI mice): 2000 nmol/kg | time to death after injection (male NMRI mice): approximately 2 minutes | CNS grid shock* (Minimal effective dose nmol/kg) (male NMRI mice): 300 nmol/kg | gridshock response versus vehicle (male NMRI mice): No statistical significant difference | CNS motility* (Minimal effective dose nmol/kg) (mice): 100 nmol/kg | dose with statistical significant decrease in locomotor activity during the first 15 minutes (mice): 1000 nmol/kg | locomotor activity / activity count during the first 30 minutes versus vehicle (mice): No statistical significant difference

CC(C)[C@H]1CC[C@@H](N2CCC3(CC2)C(=O)N(CCCN2CCCNCCNCCCNCC2)CN3c2ccccc2)CC1 [Compound 36, cis-8-(4-Isopropyl-cyclohexyl)-1-phenyl-3-[3-(1,4,8,11-tetraaza-cyclotetradec-1-yl)-propyl]-1,3,8-triaza-spiro[4.5]decan-4-one]
response vs control in vivo at 3 µmol/kg (Male SD/TAC rats; po, read-out: PO max effect.): 240% | Lovest Dose at which increased diuresis is achieved nMol/kg. I.e. >1.5 IV (Male SD/TAC rats; rat, in vivo): 10 nmol/kg | Lovest Dose at which increased diuresis is achieved nMol/kg. I.e. >1.5 PO (Male SD/TAC rats; rat, in vivo, po): 1000 nmol/kg | PO Dose at which max diuresis is achieved (Male SD/TAC rats; rat, in vivo, po): 1000 nmol/kg | half-life (in vivo): 120 min | dose at which the mice died after injection (male NMRI mice): 2000 nmol/kg | time to death after injection (male NMRI mice): approximately 1 | CNS grid shock* (Minimal effective dose nmol/kg) (male NMRI mice): 1000 nmol/kg | CNS motility* (Minimal effective dose nmol/kg) (mice): 100 nmol/kg

O=C(O)C(F)(F)F [TFA, Trifluoroacetic acid]
gridshock response versus vehicle (male NMRI mice): No statistical significant difference | locomotor activity / activity count during the first 30 minutes versus vehicle (mice): No statistical significant difference

cis and trans-3-(Methoxycarbonylmethyl-)-8-(4-isopropyl-cyclohexyl)-1-phenyl-1,3,8-triaza-spiro[4.5]decan-4-one [Compound 10]
Lovest Dose at which increased diuresis is achieved nMol/kg. I.e. >1.5 SC (Male SD/TAC rats; rat, in vivo, sc): 1000 nmol/kg | SC Dose at which max diuresis is achieved (Male SD/TAC rats; rat, in vivo, sc): 1000 nmol/kg | SC max effect. (Male SD/TAC rats; rat, in vivo, sc): 1.9

cis-(8-(4-Isopropyl-cyclohexyl)-1-phenyl-1,3,8-triaza-spiro[4.5]decan-4-one)-acetic acid [Compound 11]
Lovest Dose at which increased diuresis is achieved nMol/kg. I.e. >1.5 IV (Male SD/TAC rats; rat, in vivo): 10 nmol/kg | Lovest Dose at which increased diuresis is achieved nMol/kg. I.e. >1.5 SC (Male SD/TAC rats; rat, in vivo, sc): 1000 nmol/kg | SC Dose at which max diuresis is achieved (Male SD/TAC rats; rat, in vivo, sc): 1000 nmol/kg | SC max effect. (Male SD/TAC rats; rat, in vivo, sc): 2.0 | oral availability (in words) [1]: orally available | gridshock response versus vehicle (male NMRI mice): No statistical significant difference | CNS motility* (Minimal effective dose nmol/kg) (mice): >10000 nmol/kg | locomotor activity / activity count during the first 30 minutes versus vehicle (mice): No statistical significant difference
